Experimental findings from patent US7691843B2, “N-hydroxyamide derivatives possessing antibacterial activity” (Pfizer Inc., priority 2002, dated 2010) are described below.

Each structure is given as a SMILES string.

As a reminder, the ED50 is the midpoint of the dose-response relation. A low value points to greater potency.

Type in all cases: in vivo
In test [1] the test system is Escherichia coli ATCC 25922. Briefly: Efficacy in murine E. coli septicemia. To be noted: ATCC25922; ICR mice inoculated intraperitoneally with Escherichia coli ATCC 25922 at 4×10^4 CFU; administered intravenously 1 hour after inoculation (doses in mg/kg); mortality recorded 7 days; non-linear regression. The protocol: (§1) Efficacy studies were performed in an E. coli murine septicemia model according to models published elsewhere (Goldstein, B. P., G. Candiani, T. M. Arain, G. Romano, I. Ciciliato, M. Berti, M. Abbondi, R. Scotti, M. Mainini, F. Ripamonti, and et al. 1995. Antimicrobial activity of MDL 63,246, a new semisynthetic glycopeptide antibiotic Antimicrob Agents Chemother. 39:1580-1588; Misiek, M., T. A. Pursiano, F. Leitner, and K. E. Price 1973. Microbiological properties of a new cephalosporin, BL-S 339: 7-(phenylacetimidoyl-aminoacetamido)-3-(2-methyl-1,3,4-thiadiazol-5-ylthio methyl)ceph-3-em-4-carboxylic acid Antimicrob Agents Chemother. 3:40-48).
The compound was dissolved in 10% DMSO, 0.1% Tween 80, 0.9% NaCl solution and administered intravenously at 10 ml/kg at 1 hour after bacterial inoculation. The compound was administered at 80, 40, 20, 5, 2.5, and 1.25 mg/kg. A control with ampicillin was included in the evaluation.
Male or female ICR mice weighing 22±2 g from MDS Pharma Services were used for the evaluation. Food and water was given ad libitum. Groups of 6 mice weighing 22+g were used for the experiment. Mice were inoculated intraperitoneally with Escherichia coli ATCC 25922 at 4×10^4 CFU in 0.5 ml of Brain Heart Infusion Broth (Difco) containing 5% mucin (Sigma). Mortality was recorded once daily for 7 days following bacterial inoculation.

Test [2] concerns Proteus vulgaris ATCC 13315. As to the kind of experiment: Efficacy in murine Proteus vulgaris septicemia. To be noted: ATCC13315; ICR mice inoculated intraperitoneally with Proteus vulgaris ATCC 13315 at 1×10^8 CFU; administered intravenously 1 hour after inoculation (doses in mg/kg); mortality recorded 7 days; non-linear regression. The protocol: as §1, with “P. vulgaris” for “E. coli”
(§2) The compound was dissolved in 10% DMSO, 0.1% Tween 80, 0.9% NaCl solution and administered intravenously at 10 ml/kg at 1 hour after bacterial inoculation. The compound was administered at 20, 10, 5, 2.5, and 1.25 mg/kg. A control with ampicillin was included in the evaluation.
Male or female ICR mice weighing 24±2 g from MDS Pharma Services were used for the evaluation. Food and water was given ad libitum. Groups of 6 mice weighing 24±g were used for the experiment. Mice were inoculated intraperitoneally with Proteus vulgaris ATCC 13315 at 1×10^8 CFU in 0.5 ml of Brain Heart Infusion Broth (Difco) containing 5% mucin (Sigma). Mortality was recorded once daily for 7 days following bacterial inoculation.

Test [3] deals with Klebsiella pneumoniae ATCC 10031. As to the kind of experiment: Efficacy in murine Klebsiella pneumoniae septicemia. To be noted: ATCC10031; ICR mice inoculated intraperitoneally with Klebsiella pneumoniae ATCC 10031 at 3×10^7 CFU; administered intravenously 1 hour after inoculation (doses in mg/kg); mortality recorded 7 days; non-linear regression. The protocol: as §1, with “K. pneumoniae” for “E. coli”
as §2
Male or female ICR mice weighing 24±2 g from MDS Pharma Services were used for the evaluation. Food and water was given ad libitum. Groups of 6 mice weighing 24±g were used for the experiment. Mice were inoculated intraperitoneally with Klebsiella pneumoniae ATCC 10031 at 3×10^7 CFU in 0.5 ml of Brain Heart Infusion Broth (Difco) containing 5% mucin (Sigma). Mortality was recorded once daily for 7 days following bacterial inoculation.

Regarding `CC1(C)S[C@@H]2[C@H](NC(=O)[C@H](N)c3ccccc3)C(=O)N2[C@H]1C(=O)O` [ampicillin], the figures for the ED50 in test [1], in test [2] and in test [3] were 14.1 mg/kg, 29.7 mg/kg and 6.8 mg/kg, respectively.
